Laboratory results reported in patent publication US20040259906A1, “Methods for controlling the proliferation of cells” (priority 2003, published 2004).
Entries after “also recorded” stand apart in the source; their conditions may differ.

Assays:
plants = conditions: background statement; cited from earlier work
[1] = test system: CRL-2632 human malignant diffuse large B-cell lymphoma cells; assay: Cell growth, cell number and morphology of lymphoma cells; format: cell-based; conditions: for cell growth arrest and cell death: CRL-2632, summary statement, dose dependent
Experimental: (§1) In the following examples, all referenced cell lines were purchased from ATCC. T47D cells were maintained in Dulbecco's Modified Eagle medium (DMEM) (purchased from Life Technologies, Inc.) supplemented with 10% fetal calf serum (purchased from Life Technologies, Inc.), insulin (5 μg/ml), and antibiotics. CRL-5985, CRL-2632 and Raji cells were maintained in RPMI-1640 medium supplemented with 10% fetal calf serum (purchased from Life Technologies, Inc.) and antibiotics. Western blot analysis was performed by using phospho-serine 807/811-Rb, Rb, cyclin D1, cyclin D3, cdk-2, cdk-4, bcl-2, phospho-p38, bax, bak, PARP (cell signaling technology), MCL-1 (purchased from Biosource International) and beta-tubulin antibodies (purchased from Becton-Dickenson). Proteins were separated using an 8-10% SDS-polyacrylamide gel electrophoresis (SDS-PAGE), transferred to Immobilon-P membranes and immunoblotted with antibodies using the ECL detection system.
(§2) Cell lines CRL-2632 (B-cell lymphoma cells), CRL-5985 (human lung adenocarcinoma cells) and T-47D (human breast ductal adenocarcinoma cells) were exposed to 12-OPDA over an eight-day period. Cell viability and cell growth were measured versus controls.
(§3) The effects on cell growth and number for T-47D human breast cancer cells and CRL-2632 human malignant diffuse large B-cell lymphoma cells following treatment with 12-oxo-PDA and jasmonic acid (“JA”) over a four-day period were measured.
(§4) CRL-2632 diffuse large B-cell lymphoma cells (and Burkitt's lymphoma cells (“Raji”)) were treated with 12-oxo-PDA and a synthetic coronatine analog (0.5 mM).

MCL-1 = MCL-1 expression in Raji cells; format: cell-based; conditions: synthetic coronatine analog 0.5 mM (FIG. 15)
Experimental: as §1, §4

[2] = test system: Burkitt's lymphoma cells (Raji); assay: Growth arrest and apoptosis in Raji cells; format: cell-based; conditions: synthetic coronatine analog 0.5 mM (FIG. 15)
Experimental: as §1, §4

[3] = test system: CRL-2632 diffuse large B-cell lymphoma cells; assay: Apoptosis / PARP cleavage immunoblot in CRL-2632 cells; format: cell-based, human; conditions: for growth arrest and apoptosis: CRL-2632, synthetic coronatine analog 0.5 mM (FIG. 15)
Experimental: as §1
Regulated cell apoptosis is essential for the development and maintenance of the immune system. The highly regulated anti-apoptotic MCL-1 protein appears to enhance short-term survival and functions in genotoxic cell death. […] Thus, deletion of MCL-1 during early lymphocyte differentiation increases apoptosis and arrests the development of B and T-lymphocytes. In this regard, one hallmark of apoptosis is activation of the caspases (e.g., caspase-3, caspase-6, and caspase-7). Activation of caspases leads to the cleavage of a […] PARP protein into an 89-kDa fragment.
Cells were incubated in the presence of 12-oxo-PDA (20 μM) for between one and six hours. The cells were then washed and lysed to extract total proteins. Thereafter, 30 μg extracts were resolved on 8% SDS-PAGE gel and probed with anti-PARP, anti-MCL-1, anti-bcl-2, anti-bax and anti-bak antibodies. […] Similarly, FIG. 13 illustrates the effects of 12-oxo-PDA treatment on apoptosis related proteins (i.e., Bcl-2, MCL-1, Bax and Bak proteins). […]

MCL-1 protein = assay: Immunoblot, MCL-1 expression in CRL-2632 cells; format: cell-based, human; conditions: for expression of MCL-1 protein: CRL-2632, synthetic coronatine analog 0.5 mM (FIG. 15)
Experimental: as §1
(§5) Cells were incubated in the presence of 12-oxo-PDA (20 μM) for between one and six hours. The cells were then washed and lysed to extract total proteins. Thereafter, 30 μg extracts were resolved on 8% SDS-PAGE gel and probed with anti-PARP, anti-MCL-1, anti-bcl-2, anti-bax and anti-bak antibodies. […] Similarly, FIG. 13 illustrates the effects of 12-oxo-PDA treatment on apoptosis related proteins (i.e., Bcl-2, MCL-1, Bax and Bak proteins).
as §4

Bcl-2 = assay: Immunoblot, Bcl-2 expression in CRL-2632 cells; format: cell-based, human; conditions: CRL-2632, 20 μM, one to six hours (FIG. 13)
Experimental: as §1, §5

p27 mRNA = assay: Real-time RT-PCR in T-47D cells, p27; format: cell-based, human; conditions: 25 uM, 48 hours, vs ethanol (FIG. 11)
Experimental: (§6) For real-time RT-PCR experiments T-47D cells were treated with ethanol (control) or with 25 uM 12-OPDA for 48 hours. Total RNA was isolated using TRIzol reagent (Invitrogen, Carlsbad, Calif.) followed by purification on RNeasy columns (Qiagen, Palo Alto, Calif.). For quantitative real-time RT-PCR analyses, total RNA from each sample was reverse transcribed with MuLV reverse transcriptase (Applied Biosystems, Foster City, Calif.) and random hexamer primers. The SYBR Green PCR Kit (Applied Biosystems) was used for quantitative real-time RT-PCR analysis. The primers for human ubuquitin, cyclin D1, p27 and c-fos were designed using Primer Express software (Applied Biosystems). 12-oxo-PDA was purchased from Larodon Fine Chemicals AB, Sweden. Jasmonic acid was purchased from Sigma-Aldrich Co. The indanoyl amino acid conjugate of coronatine (i.e., synthetic 6-azido-1-oxo-indanoyl isoleucine) was obtained from Dr. Wilhelm Boland (Max Planck Institute, Germany).
(§7) T-47D cells were exposed to 12-oxo-PDA in an effort to determine the effect of 12-oxo-PDA on gene expression. FIGS. 10, 11 and 12 show 12-OPDA mediated regulation of cyclin D1, p27 and c-fos mRNA levels, respectively, in T-47D cells compared to ethanol treatment alone. […] Thus, it appears that 12-oxo-PDA has a direct regulatory/inhibitory effect on the cyclin D1 and Rb protein. […]

[4] = test system: T-47D (human breast ductal adenocarcinoma cells); assay: Cell viability, trypan blue exclusion assay; format: cell-based; conditions: eight-day period, trypan blue (FIG. 5)
Experimental: as §1, §2

[5] = test system: CRL-5985 (human lung adenocarcinoma cells); assay: Cell viability, trypan blue exclusion assay; format: cell-based; conditions: CRL-5985, eight-day period, trypan blue (FIG. 5)
Experimental: as §1, §2

tubulin = assay: Tubulin polymerization in CRL-2632 cells (soluble/insoluble fractions, Western blot); format: cell-based, human; conditions: CRL-2632, 20 μM, one to six hours (FIG. 16)
Experimental: as §1
The increase in insoluble tubulin fractions indicates polymerization of tubulin in treated cells.

cyclin D1 = assay: Western blot, cyclin D1 expression in T-47D cells; format: cell-based, human; conditions: 20 μM, Western blot (FIG. 9)
Experimental: as §1
(§8) Hyperphosphorylation of Rb is a critical process and component for regulating the cell cycle. The phosphorylation of Rb enables cells to pass through particular cell cycle checkpoints and to enter the S phase of cell cycle. […] Similarly, expression of β-tubulin and phosphorylation of p38 MAPK were unaffected.

[6] = test system: CRL-2632 (B-cell lymphoma cells); assay: Cell viability, trypan blue exclusion assay; format: cell-based, human; conditions: CRL-2632, eight-day period, trypan blue (FIG. 5)
Experimental: as §1, §2

[7] = test system: retinoblastoma tumor suppressor protein (Rb); assay: Western blot, Rb phosphorylation in T-47D cells; format: cell-based, human; conditions: 20 μM
Experimental: as §1, §8

cancer cells = assay: Observations on treated cancer cells (Oil Red O staining, removal from culture medium); format: cell-based
Source text: Rather, it appears that 12-oxo-PDA (and the related compounds) irreversibly interferes with the cellular mechanisms involved in cell growth, differentiation and the interaction between the cells with the extracellular matrix.

Bax = assay: Immunoblot, Bax expression in CRL-2632 cells; format: cell-based, human; conditions: CRL-2632, 20 μM, one to six hours (FIG. 13)
Experimental: as §1, §5

cyclin D1 mRNA = assay: Real-time RT-PCR in T-47D cells, cyclin D1; format: cell-based, human; conditions: 25 uM, 48 hours, relative to untreated (ethanol) cells (FIG. 10)
Experimental: as §6, §7

Bak = assay: Immunoblot, Bak expression in CRL-2632 cells; format: cell-based, human; conditions: CRL-2632, 20 μM, one to six hours (FIG. 13)
Experimental: as §1, §5

[8] = test system: T-47D human breast ductal adenocarcinoma cells; assay: Cell growth and cell number of breast cancer cells; format: cell-based; conditions: for cell growth arrest and cell death: summary statement, dose dependent
Experimental: as §1
T-47D human breast ductal adenocarcinoma cells were treated with 12-oxo-PDA and measured at three and eight-day intervals.
as §2, §3

p38 MAPK = assay: Western blot, p38 MAPK phosphorylation in T-47D cells; format: cell-based, human; conditions: 20 μM
Experimental: as §1, §8

[9] = test system: CRL-5985 human lung adenocarcinoma cells; assay: Cell growth, cell number and morphology of lung cancer cells; format: cell-based; conditions: for cell growth arrest and cell death: CRL-5985, summary statement, dose dependent
Experimental: as §1
CRL-5985 human lung adenocarcinoma cells were treated with 12-oxo-PDA and measured at three and eight-day intervals.
Lung cancer cells were treated with concentrations of 12-oxo-PDA ranging from 15 μM to 50 μM (versus an untreated control sample).
as §2

C-FOS mRNA = assay: Real-time RT-PCR in T-47D cells, c-fos; format: cell-based, human; conditions: 25 uM, 48 hours, vs ethanol (FIG. 12)
Experimental: as §6, §7

β-tubulin = assay: Western blot, β-tubulin expression in T-47D cells; format: cell-based, human; conditions: 20 μM
Experimental: as §1, §8

[10] = CRL-2632, four-day period (FIG. 8)

## CC[C@H]1C=C(C(=O)N[C@@]2(C(=O)O)C[C@@H]2CC)[C@H]2CCC(=O)[C@H]2C1 (stereo in doubt) [Coronatine]
plants
  activation of plant stress signaling (volatile emission, tendril coiling): can activate the stress signaling processes in plants

## CC[C@H](C)[C@H](NC(=O)c1cc(N=[N+]=[N-])cc2c1CCC2=O)C(=O)OC [synthetic coronatine]
[1]; CRL-2632 (FIG. 14)
  growth of CRL-2632 cells (growth ratio over ethanol control): inhibit growth
plants
  activation of plant stress signaling (volatile emission, tendril coiling): can induce volatile emissions and/or tendril coiling
MCL-1
  expression of MCL-1: down-regulated expression of MCL-1
[2]
  growth arrest and apoptosis: arrest growth and induce apoptosis
[3]
  growth arrest and apoptosis: arrest growth and induce apoptosis
MCL-1 protein
  expression of MCL-1 protein: down regulate the expression of the MCL-1 protein

## CC/C=C\C[C@@H]1C(=O)C=C[C@@H]1CCCCCCCC(=O)O [Formula 12-oxo-PDA, 12-oxo-phytodienoic acid]
Bcl-2
  expression of Bcl-2: no effect
p27 mRNA
  p27 mRNA levels: no significant changes
[4]
  cell viability: significant inhibitory effect
[5]
  cell viability: significant inhibitory effect
tubulin
  tubulin polymerization (soluble vs insoluble tubulin fractions): induces tubulin polymerization
[1]; CRL-2632, eight-day period, vs untreated samples (FIG. 6)
  decrease in total cell number: ten-fold
[1]; [10]
  total cell number over treatment period: decrease in total cell count
[1]
  cell growth arrest and cell death: arrests cell growth and induces cell death
[1]; CRL-2632, two and eight-day intervals (FIG. 4)
  morphological changes: morphological changes
Cyclin D1
  cyclin D1 expression: inhibition of cyclin D1 expression
[6]
  cell viability: particularly effective
MCL-1
  expression of MCL-1: down-regulated expression of MCL-1
[7]; Western blot
  total Rb: remained unchanged
[7]; phospho-specific Rb antibody (FIG. 9)
  Rb phosphorylation at the 807 and 811 serine residues: inhibition of the hyperphosphorylation; also recorded: dramatically inhibited
Cancer cells; Oil Red O staining
  lipid accumulation in the cytoplasm: resulted in lipid accumulation in the cytoplasm
Cancer cells; washout
  cell growth after removal of compound from culture medium: did not restore cell growth
Bax
  expression of Bax: no effect
Cyclin D1 mRNA
  decrease in cyclin D1 mRNA levels: greater than twenty-fold
[2]
  growth arrest and apoptosis: arrest growth and induce apoptosis
Bak
  expression of Bak: no effect
[8]; eight-day period, vs untreated samples (FIG. 6)
  decrease in cell number: three-fold
[8]; four-day period (FIG. 7)
  total cell number over treatment period: decrease in total cell count
[8]
  cell growth arrest and cell death: arrests cell growth and induces cell death
[8]; three and eight-day intervals, vs untreated control (FIG. 1)
  cell growth and accumulation: significant decrease in cell growth and accumulation
[3]; CRL-2632, 20 μM, one to six hours, immunoblot
  cleavage of PARP: time-dependent cleavage of PARP
[3]
  growth arrest and apoptosis: arrest growth and induce apoptosis
p38 MAPK
  phosphorylation of p38 MAPK: unaffected
[9]; CRL-5985, eight-day period, vs untreated samples (FIG. 6)
  decrease in cell number: five-fold
[9]
  cell growth arrest and cell death: arrests cell growth and induces cell death
[9]; CRL-5985, three and eight-day intervals (FIG. 2)
  morphological changes: ceased three-dimensional growth patterns and became more diffuse and single layered
[9]; CRL-5985, three and eight-day intervals, vs control (FIG. 2)
  cell growth: significant decrease in cell growth
[9]; lung cancer cells, 15 μM to 50 μM, eight days (FIG. 3)
  cell growth, concentration dependence: decrease in cell growth proportional to the concentration
C-FOS mRNA
  C-FOS mRNA levels: no significant changes
MCL-1 protein; CRL-2632, 20 μM, one to six hours (FIG. 13)
  expression of MCL-1: inhibited the expression of MCL-1
MCL-1 protein
  expression of MCL-1 protein: down-regulated expression of MCL-1
β-tubulin
  expression of β-tubulin: unaffected

## CC/C=C\C[C@H]1C(=O)CC[C@@H]1CC(=O)O [jasmonic acid, Jasmonic acid, reference compound]
[1]; [10]
  growth inhibition relative to untreated control: some growth inhibition
  total cell number over treatment period: net increase in total tumor cell number
[1]
  cell growth arrest and cell death: fails to be as effective
[8]; four-day period (FIG. 7)
  growth inhibition relative to untreated control: some growth inhibition
  total cell number over treatment period: net increase in total tumor cell number
[8]
  cell growth arrest and cell death: fails to be as effective
[9]
  cell growth arrest and cell death: fails to be as effective
